What is called EC50 is the concentration giving half of the maximal effect.

In assay [1] the test system is DMS53, SW1417, and H82 cell lines. The assay can be described thus: apoptotic induction in DMS53, SW1417 and H82 cell lines (selectively addicted to BCL-2, BCL-XL and MCL-1). The class given is cell-based. The note with it: H82 versus DMS53 and SW1417, FIG. 2B.
For assay [2], the system named is MCL-1-addicted cancer cell-line, H23. The assay can be described thus: apoptosis induction in MCL-1-addicted cancer cell line H23. Type of assay: cell-based. The note with it: H23 cells; for induction of apoptosis: FIG. 1B.
The test system of assay [3] is MCL-1-addicted cancer cell-line H82. Kind of assay: apoptosis induction in MCL-1-addicted cancer cell line H82. Type of assay: cell-based. The note with it: H82 cells, FIG. 1B.
Another assay addresses BCL-2 (Homo sapiens, UniProt P10415). The note with it: Oltersdorf et al., Nature, 2005; cited from earlier work.
In a further assay the target is MCL-1 (Homo sapiens, UniProt Q07820). The note with it: background statement; cited from earlier work.
Sequence of MCL-1 (Q07820 whole entry, species assumed): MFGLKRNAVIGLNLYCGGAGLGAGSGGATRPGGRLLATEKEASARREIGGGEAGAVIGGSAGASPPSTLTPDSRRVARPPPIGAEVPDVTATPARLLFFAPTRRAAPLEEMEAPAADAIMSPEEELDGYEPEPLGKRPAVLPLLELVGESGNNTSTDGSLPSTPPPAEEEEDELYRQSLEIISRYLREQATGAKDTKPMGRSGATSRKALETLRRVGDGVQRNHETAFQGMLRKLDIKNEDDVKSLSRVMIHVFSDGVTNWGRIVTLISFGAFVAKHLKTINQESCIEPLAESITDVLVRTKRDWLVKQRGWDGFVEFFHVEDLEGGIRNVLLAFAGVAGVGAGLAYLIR
The target of the next assay is T1, BCL-W (Homo sapiens, UniProt Q92843).
T1 sequence (Q92843 1-193): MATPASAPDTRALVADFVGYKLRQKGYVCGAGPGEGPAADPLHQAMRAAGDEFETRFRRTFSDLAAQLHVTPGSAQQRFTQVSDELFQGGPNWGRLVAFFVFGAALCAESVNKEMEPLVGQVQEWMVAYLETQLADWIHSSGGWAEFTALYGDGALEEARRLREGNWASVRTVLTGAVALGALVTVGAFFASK
The settings on record: Oltersdorf et al., Nature, 2005; cited from earlier work.

A further assay addresses BCL-XL (Homo sapiens, UniProt Q07817). The note with it: Oltersdorf et al., Nature, 2005; cited from earlier work.

The structures appear in SMILES notation.

Sequence of BCL-2 (P10415 whole entry, species assumed): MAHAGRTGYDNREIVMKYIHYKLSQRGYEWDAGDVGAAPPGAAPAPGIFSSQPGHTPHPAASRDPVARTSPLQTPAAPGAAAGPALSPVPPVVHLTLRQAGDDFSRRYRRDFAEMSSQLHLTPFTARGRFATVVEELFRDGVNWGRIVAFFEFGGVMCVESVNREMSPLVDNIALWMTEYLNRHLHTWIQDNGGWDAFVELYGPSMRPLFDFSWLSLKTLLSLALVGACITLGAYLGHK
Sequence of BCL-XL (Q07817 whole entry, species assumed): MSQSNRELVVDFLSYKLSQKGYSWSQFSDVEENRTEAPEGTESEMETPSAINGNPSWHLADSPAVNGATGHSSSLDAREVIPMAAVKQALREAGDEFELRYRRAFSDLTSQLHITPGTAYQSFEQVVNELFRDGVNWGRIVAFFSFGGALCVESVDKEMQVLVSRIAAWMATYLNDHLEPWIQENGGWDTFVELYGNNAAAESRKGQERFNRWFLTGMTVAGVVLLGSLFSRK

For `CCOC(=O)c1c(C)oc2cc(Br)c(NS(=O)(=O)c3ccc(OC)cc3)cc12` [Compound 1], the “selectivity of apoptosis induction in MCL-1 addicted cancer cell line over BCL-2 or BCL-XL addicted cancer cell lines” value in assay [1] is listed as “selectively induce apoptosis”. The induction of apoptosis result in assay [2] (1 µM of compound), in assay [2] (1 μM of compound), in assay [3] (1 µM of compound) and in assay [3] (1 μM of compound) was “robust apoptosis” in each case. The EC50 in assay [2] (Homo sapiens, NCI-H23, FIG. 1A, read-out: EC50 of inducing apoptosis) was 0.6 µM.

On to `CC1(C)CCC(c2ccc(Cl)cc2)=C(CN2CCN(c3ccc(C(=O)NS(=O)(=O)c4ccc(N[C@H](CCN5CCOCC5)CSc5ccccc5)c(S(=O)(=O)C(F)(F)F)c4)cc3)CC2)C1` [ABT-263], for which the “binding affinity to BCL-2” value at BCL-2 was “high affinity”. For the same compound, the “inhibition of MCL-1” value at MCL-1 is listed as “do not inhibit”. For the same compound, the “binding affinity to BCL-W” value at BCL-W was “high affinity”. For the same compound, the “binding affinity to BCL-XL” value on BCL-XL is given as “high affinity”.

For the compound `CN(C)CC[C@H](CSc1ccccc1)Nc1ccc(S(=O)(=O)NC(=O)c2ccc(N3CCN(Cc4ccccc4-c4ccc(Cl)cc4)CC3)cc2)cc1[N+](=O)[O-]` [ABT-737, (R)-4-(4-((4′-chloro-[1,1′-biphenyl]-2-yl)methyl)piperazin-1-yl)-N-((4-((−4-(dimethylamino)-1-(phenylthio)butan-2-yl)amino)-3-nitrophenyl)sulfonyl)benzamide], on BCL-2, the “binding affinity to BCL-2” value is “high affinity”. Besides, the “inhibition of MCL-1” value on MCL-1 is recorded as “do not inhibit”. At BCL-W, the “binding affinity to BCL-W” value is reported as “high affinity”. The “binding affinity to BCL-XL” value at BCL-XL is on record as “high affinity”.

(Values after patent US10975051B2, “Phenylsulfonamido-benzofuran derivatives and uses thereof in the treatment of proliferative diseases” (Memorial Sloan-Kettering Cancer Center, priority 2015, dated 2021).)
